Laboratory results: patent US20220041578A1, “ISOINDOLINE COMPOUND, AND PREPARATION METHOD, PHARMACEUTICAL COMPOSITION, AND APPLICATION OF ISOINDOLINE COMPOUND” (Shanghai Institute of Meteria Medica, Chinese Academy of …, priority 2018, published 2022)

What follows are molecules tested on MM.1S cells (assay: Effect of the compound on the proliferation of MM.1S cells (MTS)). Conditions: Homo sapiens, MM1.S, 168 h, 7 days, read-out: Cell inhibitory activity (IC50).
Format: cell-based
Procedure: MM.1S cells were cultured with 1640 plus 10% fetal bovine serum and collected. The cell concentration was diluted according to the action time of 7 days, and 180 ul cell suspension was added to each well of the 96-well cell plate to make the cell count to be 20,000. 20 ul of DMSO with a final concentration of 0.2% was added to the control cell wells. The compound was diluted 5-fold with the 10 mM stock solution, and 20 ul was also added to the compound cell wells (the final concentration of DMSO is 0.2%). The cells were placed in a 37° C., 5% CO2 incubator and incubated for 7 days. After preparing the reaction solution according to the MTS kit (Promega, G5430), 20 μL was added to each well, incubated in a 37° C., 5% CO2 incubator for 3-4 h. Read the 490 nm absorbance value with a microtiter plate, and used the 690 nm absorbance value as the background value and OD490-OD690 as the final initial data. The formula for calculating the inhibition rate of the compound is: inhibition rate=(OD DMSO-ODcompound)/(ODDMSO-Oblank)×100%. The compound's proliferation inhibition IC50 was fitted by Graph Pad Prism 5.0. The experiment was repeated three times, and three parallel experiments were used to calculate the average and standard deviation each time.

Row | IC50 [nM] | SMILES
1 | < 150 | O=C1CCC(N2Cc3c(OCc4nnc(-c5ccc(OC(F)(F)F)cc5)s4)cccc3C2=O)C(=O)N1 (centres unmarked) [Compound 41, 3-(1-oxo-4-((5-(4-trifluoromethoxyphenyl)-1,3,4-thiadiazol-2-)methoxy)isoindolin-2-) piperidine-2,6-dione]
2 | < 150 | O=C1CCC(N2Cc3c(NCc4cnc(-c5cccc(OC(F)(F)F)c5)o4)cccc3C2=O)C(=O)N1 (centres unmarked) [Compound 90]
3 | < 150 | [2H]c1c([2H])c([2H])c(-n2cc(COc3cccc4c3CN(C3CCC(=O)NC3=O)C4=O)nn2)c([2H])c1[2H] (centres unmarked) [Compound 78, 3-(1-oxo-4-((1-(phenyl-D5)-1H-1,2,3-triazol-4-yl)methoxy)isoindolin-2-yl) piperidine-2,6-dione]
4 | < 150 | C[C@@H](Cc1ccccc1)n1cc(COc2cccc3c2CN(C2CCC(=O)NC2=O)C3=O)nn1 (stereo partly drawn) [Compound 59, 3-(1-oxo-4-((1-((S)-1-phenylpropyl-2-)-1H-1,2,3-triazol-4-)methoxy)isoindolin-2-) piperidine-2,6-dione]
5 | 150 to 20000 | O=C1CCC(N2Cc3c(OCc4cn(Cc5cccnc5)nn4)cccc3C2=O)C(=O)N1 (centres unmarked) [Compound 3]
6 | < 150 | O=C1CCC(N2Cc3c(OCc4cn(-c5ccc(CCO)cc5)nn4)cccc3C2=O)C(=O)N1 (centres unmarked) [Compound 33]
7 | 150 to 20000 | O=C1CCC(N2Cc3c(OCc4cn(-c5ccc(OC6CC6)cc5F)nn4)cccc3C2=O)C(=O)N1 (centres unmarked) [Compound 92, 3-(4-((1-(4-cyclopropoxy-2-fluorophenyl)-1H-1,2,3-triazol-4-yl)methoxy)-1-oxoisoindol-2-yl) piperidine-2,6-dione]
8 | < 150 | O=C1CCC(N2Cc3c(OCc4cn(-c5ccc(O)cc5)nn4)cccc3C2=O)C(=O)N1 (centres unmarked) [Compound 21, 3-(4-((1-(4-hydroxyphenyl)-1H-1,2,3-triazol-4-)methoxy)-1-oxoisoindolin-2-) piperidine-2,6-dione]
9 | < 150 | COC(=O)c1cccc(Cn2cc(COc3cccc4c3CN(C3CCC(=O)NC3=O)C4=O)nn2)c1 (centres unmarked) [Compound 10, Methyl 3-((4-(((2-(2,6-dioxopiperidin-3-)-1-oxoisoindolin-4-)oxo)methyl)-1H-1,2,3-triazol-1-)methyl) benzoate]
10 | < 150 | CN(C)C[C@@H](Cc1ccccc1)n1cc(COc2cccc3c2CN(C2CCC(=O)NC2=O)C3=O)nn1 (some centres unmarked) [Compound 57]
11 | 150 to 20000 | O=C1CCC(N2Cc3c(OCC4CN(c5ccc(OC(F)(F)F)cc5)C4)cccc3C2=O)C(=O)N1 (centres unmarked) [Compound 64, 3-(1-oxo-4-((1-(4-trifluoromethoxyphenyl)azetidin-3-)methoxy)isoindolin-2-) piperidine-2,6-dione]
12 | < 150 | O=C1CCC(N2Cc3c(OCc4cnc(-c5ccc(OC(F)(F)F)cc5)o4)cc(F)cc3C2=O)C(=O)N1 (centres unmarked) [Compound 80, 3-(6-fluoro-1-oxo-4-((2-(4-(trifluoromethoxy)phenyl)oxazol-5-yl)methoxy)isoindolin-2-yl) piperidine-2,6-dione]

The remaining lines, values behind:

Row | SMILES | IC50 [nM]
13 | O=C1CCC(N2Cc3c(OCc4ncc(-c5ccc(OC(F)(F)F)cc5)s4)cccc3C2=O)C(=O)N1 (centres unmarked) [Compound 39, 3-(1-oxo-4-((5-(4-trifluoromethoxyphenyl)thiazol-2-)methoxy)isoindolin-2-) piperidine-2,6-dione] | < 150
14 | O=C1CCC(N2Cc3c(OCc4cn(-c5ccc(OCC6CCOCC6)cc5)nn4)cccc3C2=O)C(=O)N1 (centres unmarked) [Compound 29, 3-(1-oxo-4-((1-(4-((2H-tetrahydropyran-4-)methoxy)phenyl)-1H-1,2,3-triazol-4-)methoxy)isoindolin-2-) piperidine-2,6-dione] | < 150
15 | O=C1CCC(N2Cc3c(OCc4ccc(-c5ccc(OC(F)(F)F)cc5)o4)cccc3C2=O)C(=O)N1 (centres unmarked) [Compound 42, 3-(1-oxo-4-((5-(4-trifluoromethoxyphenyl)furan-2-)methoxy)isoindolin-2-) piperidine-2,6-dione] | < 150
16 | Cc1cc(COc2cccc3c2CN(C2CCC(=O)NC2=O)C3=O)nn1-c1c(Cl)cc(OC(F)(F)F)cc1Cl (centres unmarked) [Compound 85, 3-(4-((1-(2,6-dichloro-4-(trifluoromethoxy)phenyl)-5-methyl-1H-pyrazol-3-yl)methoxy)-1-isoindolin-2-yl)piperidine-2,6-dione] | < 150
17 | O=C1CCC(N2Cc3c(NCc4cnc(-c5ccccc5OC(F)(F)F)o4)cccc3C2=O)C(=O)N1 (centres unmarked) [Compound 94] | 150 to 20000
18 | [2H]c1c([2H])c([2H])c(-n2cc(COc3cc(F)cc4c3CN(C3CCC(=O)NC3=O)C4=O)nn2)c([2H])c1[2H] (centres unmarked) [Compound 79, 3-(6-fluoro-1-oxo-4-((1-(phenyl-D5)-1H-1,2,3-triazol-4-yl)methoxy)isoindolin-2-yl) piperidine-2,6-dione] | < 150
19 | O=C1CCC(N2Cc3c(OCCC4CCN(c5ccnc6ccccc56)CC4)cccc3C2=O)C(=O)N1 (centres unmarked) [Compound 68, 3-(1-oxo-4-(2-(1-(quinolin-4-)piperidin-4-)ethoxy)isoindolin-2-) piperidin-2,6-dione] | < 150
20 | O=C1CCC(N2Cc3c(OCc4cn(Cc5ccc(CN6CCOCC6)cc5)nn4)cccc3C2=O)C(=O)N1 (centres unmarked) [Compound 12, 3-(4-((1-(4-(morpholinomethyl)benzyl)-1H-1,2,3-triazol-4-)methoxy)-1-oxoisoindolin-2-) piperidine-2,6-dione] | < 150
21 | O=C1CCC(N2Cc3c(OCc4cn([C@@H](CO)Cc5ccccc5)nn4)cccc3C2=O)C(=O)N1 (some centres unmarked) [Compound 53] | < 150
22 | COc1cccc(Cn2cc(COc3cccc4c3CN(C3CCC(=O)NC3=O)C4=O)nn2)c1 (centres unmarked) [Compound 5] | < 150
23 | O=C1CCC(N2Cc3c(OC[C@H]4CCN(c5ccnc6ccccc56)C4)cccc3C2=O)C(=O)N1 (stereo partly drawn) [Compound 65, 3-(1-oxo-4-(((S)-1-(quinolin-4-)pyrrolin-3-)methoxy)isoindolin-2-) piperidine-2,6-dione] | 150 to 20000
24 | O=C1CCC(N2Cc3c(OCc4cn(-c5ccc(OC6COC6)cc5)nn4)cccc3C2=O)C(=O)N1 (centres unmarked) [Compound 31, 3-(4-((1-(4-(epoxypropanoxy-3-oxy)phenyl)-1H-1,2,3-triazol-4-)methoxy)-1-oxoisoindolin-2-)piperidine-2,6-dione] | < 150
25 | O=C1CCC(N2Cc3c(OCc4cn(CC5CCOCC5)nn4)cccc3C2=O)C(=O)N1 (centres unmarked) [Compound 48, 3-(1-oxo-4-((1-((tetrahydro-2H-pyran-4-)methyl)-1H-1,2,3-triazol-4-)methoxy)isoindolin-2-) piperidine-2,6-dione] | 150 to 20000
26 | O=C1CCC(N2Cc3c(OCc4cn(C5C6CC7CC(C6)CC5C7)nn4)cccc3C2=O)C(=O)N1 [Compound 87, 3-(4-((1-((1R, 3R, 5R, 7R)-adamantan-2-yl)-1H-1,2,3-triazol-4-yl)methoxy)-1-isoindolin-2-yl) piperidin-2,6-dione] | < 150
27 | C[C@]1(N2C(=O)c3cccc(OCc4cn(-c5ccc(OC(F)(F)F)cc5)nn4)c3C2=O)CCC(=O)NC1=O [Compound 35] | 150 to 20000
28 | O=C1CCC(N2Cc3c(OCc4cn(Cc5ccncc5)nn4)cccc3C2=O)C(=O)N1 (centres unmarked) [Compound 2] | 150 to 20000
29 | O=C1CCC(N2Cc3c(OCC4CCN(c5ccc(OC(F)(F)F)cc5)CC4)cccc3C2=O)C(=O)N1 (centres unmarked) [Compound 73, 3-(1-oxo-4-((1-(4-(trifluoromethoxy)phenyl)piperidin-4-)methoxy)isoindolin-2-) piperidin-2,6-dione] | < 150
30 | C[C@]1(N2Cc3c(OCc4cn(-c5ccc(OC(F)(F)F)cc5)nn4)cccc3C2=O)CCC(=O)NC1=O [Compound 34] | 150 to 20000
31 | O=C1CCC(N2Cc3c(OCc4cn(Cc5ccc6[nH]cnc6c5)nn4)cccc3C2=O)C(=O)N1 (centres unmarked) [Compound 13] | 150 to 20000
32 | O=C1CCC(N2Cc3c(OCc4cn(-c5cccc(N6CCOCC6)c5)nn4)cccc3C2=O)C(=O)N1 (centres unmarked) [Compound 22, 3-(4-((1-(3-morpholinophenyl)-1H-1,2,3-triazol-4-)methoxy)-1-oxoisoindolin-2-) piperidine-2,6-dione] | < 150
33 | O=C1CCC(N2Cc3c(OCc4cn(-c5cccc(O)c5)nn4)cccc3C2=O)C(=O)N1 (centres unmarked) [Compound 16, 3-(4-((1-(3-hydroxyphenyl)-1H-1,2,3-triazol-4-)methoxy)-1-oxoisoindolin-2-) piperidine-2,6-dione] | < 150

The molecules below were run on Mino cells (assay: Effect of the compound on the proliferation of Mino cells (MTS)). Conditions: Homo sapiens, 72 h, 3 days, read-out: Inhibitory activity (IC50).
Format: cell-based
Procedure: Mino cells were cultured with 1640 plus […] and collected. The cell concentration was diluted according to the action time of 3 days, and 90 ul cell suspension was added to each well of the 96-well cell plate to make the cell count to be 8000. 10 ul of DMSO with a final concentration of 0.2% was added to the control cell wells. The compound was diluted 5-fold with the 10 mM stock solution, and 10 ul was also added to the compound cell wells (the final concentration of DMSO was 0.2%). The cells were placed in a 37° C., […] incubator and incubated for 3 days. After preparing the reaction solution according to the MTS kit (Promega, G5430), 20 μL was added to each well, incubated in a 37° C., 5% CO2 incubator for 3-4 h. Read the 490 nm absorbance value with a microtiter plate, and used the 690 nm absorbance value as the background value and OD490-OD690 as the final initial data. The formula for calculating the inhibition rate of the compound was: inhibition rate=(OD DMSO-ODcompound)/(ODDMSO-Oblank)×100%. The compound's proliferation inhibition IC50 was fitted by Graph Pad Prism 5.0. The experiment was repeated three times, and three parallel experiments were used to calculate the average and standard deviation each time.

Row | SMILES | IC50 [nM]
34 | O=C1CCC(N2Cc3c(OCc4nnc(-c5ccc(OC(F)(F)F)cc5)s4)cccc3C2=O)C(=O)N1 (centres unmarked) [Compound 41, 3-(1-oxo-4-((5-(4-trifluoromethoxyphenyl)-1,3,4-thiadiazol-2-)methoxy)isoindolin-2-) piperidine-2,6-dione] | 150 to 20000
35 | O=C1CCC(N2Cc3c(OCc4ncc(-c5ccc(OC(F)(F)F)cc5)s4)cccc3C2=O)C(=O)N1 (centres unmarked) [Compound 39, 3-(1-oxo-4-((5-(4-trifluoromethoxyphenyl)thiazol-2-)methoxy)isoindolin-2-) piperidine-2,6-dione] | 150 to 20000
36 | O=C1CCC(N2Cc3c(OCc4cn(-c5ccc(OCC6CCOCC6)cc5)nn4)cccc3C2=O)C(=O)N1 (centres unmarked) [Compound 29, 3-(1-oxo-4-((1-(4-((2H-tetrahydropyran-4-)methoxy)phenyl)-1H-1,2,3-triazol-4-)methoxy)isoindolin-2-) piperidine-2,6-dione] | 150 to 20000
37 | O=C1CCC(N2Cc3c(OCc4ccc(-c5ccc(OC(F)(F)F)cc5)o4)cccc3C2=O)C(=O)N1 (centres unmarked) [Compound 42, 3-(1-oxo-4-((5-(4-trifluoromethoxyphenyl)furan-2-)methoxy)isoindolin-2-) piperidine-2,6-dione] | < 150
38 | O=C1CCC(N2Cc3c(NCc4cnc(-c5cccc(OC(F)(F)F)c5)o4)cccc3C2=O)C(=O)N1 (centres unmarked) [Compound 90] | < 150
